How the values were obtained:
tumor cell lines = experiment: inhibition on tumor cell lines (drawing 11); assay type: cell-based; design: tumor cell line inhibition, first column under head drawing 11 / tumor cell line inhibition, third column under head drawing 11: unit not given here; conditions: head is a drawing, cell line and unit not readable; for tumor cell line inhibition, first column under head drawing 11: first of three columns; for tumor cell line inhibition, second column under head drawing 11: second of three columns; for tumor cell line inhibition, third column under head drawing 11: third of three columns
Experimental: The following compounds or a pharmaceutically acceptable salt thereof, but not limited, can also be prepared similarly according to the methods described in Scheme I-Scheme II. They are also tested for the inhibitions on mTor or pi3k kinases, or tumor cell lines.

mTor = molecular target: T1, mTor (Homo sapiens, UniProt P42345); experiment: mTor kinase inhibition, % activity at 0.03 μM (kinases panel screening); assay type: biochemical; conditions: 0.03 μM compound
T1 construct: purchased Millipore/Merck KGA of Europe (panel screening service)
Source text: In vitro kinase inhibition activities included Pi3k and mTor activities can be tested with Millipore/Merck KGA of Europe in their kinases panel screening. Animal antitumor activity testing can be conducted by various cancer xenograft models for a compound of formula I. […]

Row | Compound | mTor % activity @0.03 μM (mTor) [%] | further results
1 | N#CC1(c2ccc(-n3c4c5cc(-c6cnc7ccccc7c6)ccc5ncc4n4cnnc34)cc2)CCCC1 [1-{4-[4-(quinolin-3-yl)-8,11,13,14,16-pentaazatetracyclo-[8.6.0.0^2,^7.0^11,^1^5]hexadeca-1(10),2,4,6,8,12,14-heptaen-16-yl]phenyl}cyclopentane-1-carbonitrile] | – | tumor cell line inhibition, first column under head drawing 11 (tumor cell lines): 3.8; tumor cell line inhibition, second column under head drawing 11 (tumor cell lines): 3.4; tumor cell line inhibition, third column under head drawing 11 (tumor cell lines): 27
2 | Cc1nnc2n(-c3ccc(C4(C#N)CC4)cc3)c3c4cc(-c5cccnc5)ccc4ncc3n12 [1-{4-[12-methyl-4-(pyridin-3-yl)-8,11,13,14,16-pentaazatetracyclo[8.6.0.0^2,^7.0^11,^1^5]-hexadeca-1(10),2,4,6,8,12,14-heptaen-16-yl]phenyl}cyclopropane-1-carbonitrile] | – | tumor cell line inhibition, first column under head drawing 11 (tumor cell lines): 1; tumor cell line inhibition, second column under head drawing 11 (tumor cell lines): 0.3; tumor cell line inhibition, third column under head drawing 11 (tumor cell lines): 0.9
3 | Cc1nnc2n(-c3ccc(C4(C#N)CCCC4)cc3)c3c4cc(-c5cccnc5)ccc4ncc3n12 [1-{4-[12-methyl-4-(pyridin-3-yl)-8,11,13,14,16-pentaazatetracyclo[8.6.0.0^2,^7.0^11,^1^5]hexadeca-1(10),2,4,6,8,12,14-heptaen-16-yl]phenyl}cyclopentane-1-carbonitrile] | – | tumor cell line inhibition, first column under head drawing 11 (tumor cell lines): 36; tumor cell line inhibition, second column under head drawing 11 (tumor cell lines): 38; tumor cell line inhibition, third column under head drawing 11 (tumor cell lines): 70
4 | C#CC(C)(C)c1ccc(-n2c3c4cc(-c5ccccc5F)ccc4ncc3n3c(C)nnc23)cc1 [2-Fluorophenyl; CH3; CH3, CH3; CN, 4-(2-fluorophenyl)-12-methyl-16-[4-(2-methylbut-3-yn-2-yl)phenyl]-8,11,13,14,16-pentaaza-tetracyclo[8.6.0.0^2,^7.0^11,^1^5]hexadeca-1(10), 2,4,6,8,12,14-heptaene] | – | tumor cell line inhibition, first column under head drawing 11 (tumor cell lines): 0.6; tumor cell line inhibition, second column under head drawing 11 (tumor cell lines): 2.2; tumor cell line inhibition, third column under head drawing 11 (tumor cell lines): 2
5 | CC(C)(C#N)c1ccc(-n2c3c4cc(-c5cncnc5)ccc4ncc3n3cnnc23)cc1 [5-pyrimidine; H; CH3, CH3; CN, 2-methyl-2-{4-[4-(pyrimidin-5-yl)-8,11,13,14,16-pentaazatetracyclo[8.6.0.0^2,^7.0^11,^1^5]hexadeca-1(10),2,4,6,8,12,14-heptaen-16-yl]phenyl}propanenitrile] | 64 | –
6 | C#CC(C)(C)c1ccc(-n2c3c4cc(-c5ccc(OC)nc5)ccc4ncc3n3c(CC)nnc23)cc1 [12-ethyl-4-(6-methoxypyridin-3-yl)-16-[4-(2-methylbut-3-yn-2-yl)phenyl]-8,11,13,14,16-pentaazatetracyclo[8.6.0.0^2,^7.0^11,^1^5]hexadeca-1(10),2,4,6,8,12,14-heptaene] | 69 | –
7 | CC(C)(C)c1ccc(-n2c3c4cc(-c5cnc6[nH]ccc6c5)ccc4ncc3n3cnnc23)cc1 [16-(4-tert-butylphenyl)-4-{1H-pyrrolo[2,3-b]pyridin-5-yl}-8,11,13,14,16-pentaazatetracyclo-[8.6.0.0^2,^7.0^11,^1^5]hexadeca-1(10), 2,4,6,8,12,14-heptaene] | −15 | –
8 | Cc1nnc2n(-c3ccc(C(C)(C)C)cc3)c3c4cc(-c5cnc6[nH]ccc6c5)ccc4ncc3n12 [16-(4-tert-butylphenyl)-12-methyl-4-{1H-pyrrolo[2,3-b]pyridin-5-yl}-8,11,13,14,16-pentaaza-tetracyclo[8.6.0.0^2,^7.0^11,^1^5]hexadeca-1(10), 2,4,6,8,12,14-heptaene] | 54 | –
9 | CC(=O)Nc1ccc(-c2ccc3ncc4c(c3c2)n(-c2ccc(C(C)(C)C#N)cc2)c2nnc(C)n42)cn1 [N-(5-{16-[4-(1-cyano-1-methylethyl)phenyl]-12-methyl-8,11,13,14,16-pentaazatetracyclo-[8.6.0.0^2,^7.0^11,^1^5]hexadeca-1(10),2,4,6,8,12,14-heptaen-4-yl}pyridin-2-yl)acetamide] | 74 | –
10 | CC(=O)Nc1ccc(-c2ccc3ncc4c(c3c2)n(-c2ccc(C(C)(C)C)cc2)c2nncn42)cn1 [N-{5-[16-(4-tert-butylphenyl)-8,11,13,14,16-pentaazatetracyclo[8.6.0.0^2,^7.0^11,^1^5]hexadeca-1(10),2,4,6,8,12,14-heptaen-4-yl]pyridin-2-yl}acetamide] | −6 | –
11 | N-(5-{16-[4-(1-cyano-1-methylethyl)phenyl]-8,11,13,14,16-pentaazatetracyclo[8.6.0.0^2,^7.0^11,^1^5]-hexadeca-1(10), 2,4,6,8,12,14-heptaen-4-yl)}pyridin-2-yl)-2-(4-hydroxypiperidin-1-yl)acetamide | 17 | –
12 | N-(5-{16-[4-(1-cyano-1-methylethyl)phenyl]-8,11,13,14,16-pentaazatetracyclo[8.6.0.0^2,^7.0^11,^1^5]-hexadeca-1(10), 2,4,6,8,12,14-heptaen-4-yl)}pyridin-2-yl)-2-(dimethylamino)acetamide | 0 | –
13 | N-(5-{16-[4-(1-cyano-1-methylethyl)phenyl]-8,11,13,14,16-pentaazatetracyclo[8.6.0.0^2,^7.0^11,^1^5]-hexadeca-1(10), 2,4,6,8,12,14-heptaen-4-yl)}pyridin-2-yl)-2-(thian-4-ylamino)acetamide | 103 | –
14 | N-{5-[16-(4-tert-butylphenyl)-12-ethyl-8,11,13,14,16-pentaazatetracyclo[8.6.0.0^2,^7.0^11,^1^5]-hexadeca-(10),2,4,6,8,12,14-heptaen-4-yl]pyridin-2-yl}-2-(morpholin-4-yl)acetamide | 92 | –

Second part, led by results:

Row | mTor % activity @0.03 μM (mTor) [%] | Compound | further results
15 | 39 | CC(C)(C)c1ccc(-n2c3c4cc(-c5cncnc5)ccc4ncc3n3cnnc23)cc1 [5-pyrimidine; H; CH3, CH3; CH3, 16-(4-tert-butylphenyl)-4-(pyrimidin-5-yl)-8,11,13,14,16-pentaazatetracyclo[8.6.0.0^2,^7.0^11,^1^5]-hexadeca-1(10), 2,4,6,8,12,14-heptaene] | –
16 | −10 | CC(=O)Nc1ccc(-c2ccc3ncc4c(c3c2)n(-c2ccc(C(C)(C)C#N)cc2)c2nncn42)cn1 [N-(5-{16-[4-(1-cyano-1-methylethyl)phenyl]-8,11,13,14,16-pentaazatetracyclo-[8.6.0.0^2,^7.0^11,^1^5]hexadeca-1(10),2,4,6,8,12,14-heptaen-4-yl}pyridin-2-yl)acetamide] | –
17 | 72 | CCc1nnc2n(-c3ccc(C(C)(C)C#N)cc3)c3c4cc(-c5ccc(NC(C)=O)nc5)ccc4ncc3n12 [N-(5-{(16-[4-(1-cyano-1-methylethyl)phenyl]-12-ethyl-8,11,13,14,16-pentaazatetracyclo-[8.6.0.0^2,^7.0^11,^1^5]hexadeca-1(10), 2,4,6,8,12,14-heptaen-4-yl)}pyridin-2-yl)acetamide] | –
18 | 58 | CC(=O)Nc1ccc(-c2ccc3ncc4c(c3c2)n(-c2ccc(C(C)(C)C)cc2)c2nnc(C)n42)cn1 [N-{5-[16-(4-tert-butylphenyl)-12-methyl-8,11,13,14,16-pentaazatetracyclo[8.6.0.0^2,^7.0^11,^1^5]-hexadeca-1(10), 2,4,6,8,12,14-heptaen-4-yl]pyridin-2-yl}acetamide] | –
19 | −2 | N-(5-{16-[4-(1-cyano-1-methylethyl)phenyl]-8,11,13,14,16-pentaazatetracyclo[8.6.0.0^2,^7.0^11,^1^5]-hexadeca-1(10),2,4,6,8,12,14-heptaen-4-yl)}pyridin-2-yl)-2-(pyrrolidin-1-yl)acetamide | –
20 | 8 | N-(5-{16-[4-(1-cyano-1-methylethyl)phenyl]-8,11,13,14,16-pentaazatetracyclo[8.6.0.0^2,^7.0^11,^1^5]-hexadeca-1(10), 2,4,6,8,12,14-heptaen-4-yl)}pyridin-2-yl)-2-(4-methylpiperazin-1-yl)acetamide | –
21 | 54 | N-(5-{16-[4-(1-cyano-1-methylethyl)phenyl]-8,11,13,14,16-pentaazatetracyclo[8.6.0.0^2,^7.0^11,^1^5]-hexadeca-1(10), 2,4,6,8,12,14-heptaen-4-yl)}pyridin-2-yl)-2-(4-oxopiperidin-1-yl)acetamide | –
22 | 72 | N-(5-{16-[4-(1-cyano-1-methylethyl)phenyl]-8,11,13,14,16-pentaazatetracyclo[8.6.0.0^2,^7.0^11,^1^5]-hexadeca-1(10), 2,4,6,8,12,14-heptaen-4-yl)}pyridin-2-yl)-2-(morpholin-4-yl)acetamide | –
23 | 8 | N-{5-[16-(4-tert-butylphenyl)-8,11,13,14,16-pentaazatetracyclo[8.6.0.0^2,^7.0^11,^1^5]-hexadeca-1(10),2,4,6,8,12,14-heptaen-4-yl]pyridin-2-yl}-2-(methylamino)acetamide | –
24 | 40 | N-{5-[16-(4-tert-butylphenyl)-12-ethyl-8,11,13,14,16-pentaazatetracyclo[8.6.0.0^2,^7.0^11,^1^5]-hexadeca-1(10), 2,4,6,8,12,14-heptaen-4-yl]pyridin-2-yl}-2-(methylamino)acetamide | –
25 | 91 | N-{5-[16-(4-tert-butylphenyl)-12-ethyl-8,11,13,14,16-pentaazatetracyclo[8.6.0.0^2,^7.0^11,^1^5]-hexadeca-1(10), 2,4,6,8,12,14-heptaen-4-yl]pyridin-2-yl}-2-(pyrrolidin-1-yl)acetamide | –

From US10730878B2, “Fused quinoline compounds as PI3K/mTOR inhibitors” (ADVENCHEN PHARMACEUTICALS, LLC, priority 2015, dated 2020)
